“And” between values parts separate entries of the source, which are not always exact repeats. Equal entries are not always repeated. Where two headings read alike, the source gives them in different places. One block for each compound: values may come before it.
Experiments:
[1] = test system: senescent lung fibroblasts; experiment: Cleaved caspase-3 (CCasp3) immunocytochemistry in senescent lung fibroblasts; format: cell-based, human; settings: for Senolytic window (EC50pro/EC50sen): ratio of proliferating to senescent fibroblast EC50; for concentration above which senolytic effects were displayed: CCasp3 dose-response
[2] = test system: proliferating lung fibroblasts; experiment: Cleaved caspase-3 (CCasp3) immunocytochemistry in proliferating lung fibroblasts; format: cell-based, human
[3] = test system: bleomycin-induced lung fibrosis in aged mice; experiment: Bleomycin-induced model of lung fibrosis in aged mice; format: in vivo, mouse
[4] = test system: proliferating lung fibroblasts; experiment: Annexin V / Propidium Iodide flow cytometry, proliferating fibroblasts; format: cell-based, human; settings: 72 hours, F-4N 3.0 μM
[5] = Mouse liver microsomal stability; format: in vitro ADME; settings: mouse liver microsomes, 1 μM
[6] = Plasma levels following oral delivery of F-4N; format: in vivo; settings: both sexes, mouse, 30 mg/kg
[7] = Plasma stability assay, human plasma; format: in vitro ADME
[8] = Plasma stability assay, mouse plasma; format: in vitro ADME
[9] = test system: precision-cut lung slices from bleomycin-injured aged mouse lungs; experiment: Precision-cut lung slices (PCLS) from aged mice +/- bleomycin, qPCR; settings: 72 hours ex vivo; for Col1a1 expression in PCLS: Nintedanib 1.0μM, vs. vehicle
[10] = test system: senescent lung fibroblasts; experiment: Annexin V / Propidium Iodide flow cytometry, senescent fibroblasts; format: cell-based, human; settings: 72 hours, F-4N 3.0 μM
[11] = test system: repeated bleomycin-induced lung fibrosis; experiment: Repeated bleomycin-induced model of lung fibrosis; format: in vivo, mouse; settings: 10mg/kg daily i.p. for two weeks
[12] = test system: mice with bleomycin induced lung fibrosis; experiment: Oral dose-finding study with F-4N in bleomycin mice (body mass, lung cytokine transcripts); format: in vivo, mouse
[13] = test system: bleomycin-induced lung fibrosis; experiment: Bleomycin model in young Col1a2-mTmG mice, FACS-sorted fibroblasts and epithelial cells, qPCR; format: in vivo, mouse
[14] = Homo sapiens, Fibroblast, 72 h, read-out: Senescent fibroblast apoptosis EC50
[15] = Homo sapiens, Fibroblast, 72 h, read-out: Proliferating fibroblast apoptosis EC50, cleaved caspase-3 staining, 72 hours, low passage human lung fibroblasts
[16] = 10 mg/kg i.p. daily days 14-28, vs. vehicle
[17] = F-4N 3µM, ABT-263 5.0µM, ABT-199 3µM
[18] = read-out: Proliferating fibroblast apoptosis EC50, cleaved caspase-3 staining, 72 hours, low passage human lung fibroblasts
[19] = senescent vs. proliferating fibroblasts, 72 hours

Structure (SMILES): CC1(C)CCC(CN2CCN(c3ccc(C(=O)NS(=O)(=O)c4ccc(NCC5CCOCC5)c([N+](=O)[O-])c4)c(Oc4cnc5[nH]ccc5c4)c3)CC2)=C(c2ccc(Cl)cc2)C1 [ABT-199, venetoclax, reference compound]
EC50 [1, 14]: 3.2 µM
Senolytic window (EC50pro/EC50sen) [1]: 23.9
EC50 [2, 15]: 76.5 µM

Structure (SMILES): CC1(C)CCC(c2ccc(Cl)cc2)=C(CN2CCN(c3ccc(C(=O)NS(=O)(=O)c4ccc(N[C@H](CCN5CCOCC5)CSc5ccccc5)c(S(=O)(=O)C(F)(F)F)c4)cc3)CC2)C1 [ABT-263, navitoclax, reference compound]
EC50 [1, 14]: 1.9 µM
Senolytic window (EC50pro/EC50sen) [1]: 7.8
EC50 [2, 15]: 14.9 µM

Structure (SMILES): CN(C)CC[C@H](CSc1ccccc1)Nc1ccc(S(=O)(=O)NC(=O)c2ccc(N3CCN(Cc4ccccc4-c4ccc(Cl)cc4)CC3)cc2)cc1[N+](=O)[O-] [ABT-737, reference compound]
EC50 [1, 14]: 0.7 µM
EC50 [2, 15]: 9.7 µM

Structure (SMILES): O=c1c(O)c(-c2ccc(OCc3ccccn3)cc2)oc2ccccc12 [Compound F-2N]
EC50 [1, 14]: 21.8 µM
Senolytic window (EC50pro/EC50sen) [1]: 1.4
EC50 [2, 15]: 29.8 µM

Structure (SMILES): O=c1c(O)c(-c2ccc(OCc3cccnc3)cc2)oc2ccccc12 [Compound F-3N]
EC50 [1, 14]: 11.2 µM
Senolytic window (EC50pro/EC50sen) [1]: 1.3
EC50 [2, 15]: 14.9 µM

Structure (SMILES): O=c1c(O)c(-c2ccc(OCc3ccncc3)cc2)oc2ccccc12 [Compound F-4N]
plasma levels of IL-6 ([3]; 10 mg/kg i.p. daily days 14-28): nearly complete normalization
lung collagen content (hydroxyproline) [3, 16]: nearly complete resolution of lung collagen content
mouse survival [3, 16]: improvement in mouse survival
whole lung expression of ECM and senescence-associated transcripts [3, 16]: significantly lower expression
whole lung markers associated with alveolar regeneration and repair [3, 16]: significantly elevated
apoptosis (Annexin V / Propidium Iodide) [4]: without an observable impact
microsomal half-life relative to quercetin [5]: > 3 fold
concentration at 2 h [6]: 561 ng/mL and 1.62 µM
half-life at 1 μM [7]: > 120 min
half-life at 1 μM [8]: > 120 min
markers indicative of alveolar regeneration in PCLS [9, 17]: stimulated expression of markers indicative of alveolar regeneration
senescence associated markers in PCLS [9, 17]: supported reductions in senescence associated markers
apoptosis (Annexin V / Propidium Iodide) [10]: selective apoptosis in senescent lung fibroblasts
expression of aberrant basaloid/intermediate epithelial markers Snf, Cldn4, Krt19, Mmp7 [11]: repressing expression
expression of mature alveolar epithelial markers Hopx, Ager, Sftpa1, Sftpc [11]: enhanced expression
body mass, lung architecture, collagen content, whole lung gene expression ([11]; vs. vehicle): features consistent with resolution
greater senolytic potency in vitro compared to fisetin or quercetin [1]: ~ 50 X
EC50 [1, 14]: 0.8 µM
EC50 ([1]; Homo sapiens, Fibroblast, read-out: EC50 (senolytic potency, CCasp3 assay)): 0.9 µM
IC50 ([1]; Homo sapiens, Fibroblast, read-out: defined in vitro IC50): 0.9 µM
Senolytic window (EC50pro/EC50sen) [1]: 61.1
cleaved caspase-3 expression in senescent fibroblasts derived from multiple stimuli ([1]; senescence by replication, radiation, etoposide or bleomycin, 72 hours, F-4N 3µM): induces cleaved caspase-3 expression
senolytic window (selective) ([1]; senescent vs. proliferating fibroblasts): 61.1 fold
bodyweight ([12]; 30mg/kg daily p.o. for one week): improvement in bodyweight
minimum effective oral dose to impact expression of Infa2, Il6, Ccl19, Cxcl13, Tgfb2, Ltb ([12]; daily p.o. 7 days, whole lung qPCR): 30 mg/kg
EC50 [2, 15]: 48.9 µM

ranking in follow-up dose-response of the commercial flavonol library ([1]; CCasp3, senescent and proliferating lung fibroblasts): most potent and selective senolytics
expression of pathological markers of lung fibrosis (ECM genes, senescence-associated soluble factors, aberrant basaloid markers) ([13]; 10 mg/kg i.p. daily for 4 days): normalized expression
Structure (SMILES): CCOc1ccc(-c2oc3ccccc3c(=O)c2O)cc1 [Compound F-19]
expression of Sftpc and Hopx (mature alveolar epithelium) in PCLS ([9]; F-19 10μM): increased expression
Col1a1 expression in PCLS ([9]; F-19 10μM): reduced expression of Col1a1
expression of senescence-associated markers Cdkn2a, Cdkn1a, Il6 in PCLS ([9]; F-19 10μM, vs. vehicle- and nintedanib-treated): significantly reduced expression
more potent than the natural products Q or F [1]: 10 fold
EC50 [1, 14]: 2.4 µM
Senolytic window (EC50pro/EC50sen) [1]: 10.2
expression of TNF-α in fibroblasts and epithelial cells ([13]; 10 mg/kg i.p. daily for 4 days): did not alter expression
expression of Cdkn2a (p16) and Cdkn1a (p21) in fibroblasts and epithelial cells ([13]; 10 mg/kg i.p. daily for 4 days from day 10 after bleomycin, vs. vehicle): significantly reduced expression
expression of alveolar epithelial ATII, ATII/ATI and ATI markers ([13]; 10 mg/kg i.p. daily for 4 days, vs. vehicle): elevated expression
EC50 [2, 15]: 25 µM
EC50 [2, 18]: 24.5 µM

Structure (SMILES): O=c1c(O)c(-c2ccc(OCc3ccccc3)cc2)oc2ccccc12 [Compound F-20]
EC50 [1, 14]: 1.5 µM
Senolytic window (EC50pro/EC50sen) [1]: 18.4
EC50 [2, 15]: 27.6 µM

Senolytic window (EC50pro/EC50sen) [1]: 5.7
EC50 ([1]; read-out: Senescent fibroblast apoptosis EC50, cleaved caspase-3 staining, 72 hours, replicative senescent human lung fibroblasts): 3.4 µM
Structure (SMILES): CCCOc1ccc(-c2oc3ccccc3c(=O)c2O)cc1 [F-19(Me)]
EC50 [2, 18]: 19.5 µM

Structure (SMILES): O=c1c(O)c(-c2ccc(O)c(O)c2)oc2cc(O)ccc12 [fisetin, reference compound]
concentration above which senolytic effects were displayed [1, 19]: above 30 μM

Structure (SMILES): COC(=O)c1ccc2c(c1)NC(=O)/C2=C(\Nc1ccc(N(C)C(=O)CN2CCN(C)CC2)cc1)c1ccccc1 [nintedanib, reference compound]
Col1a1 expression in PCLS ([9]; F-19 10μM): reduced expression of Col1a1

half-life at 1 μM [7]: ~30 min
half-life at 1 μM [8]: ~30 min
Structure (SMILES): O=c1c(O)c(-c2ccc(O)c(O)c2)oc2cc(O)cc(O)c12 [quercetin, reference compound]
concentration above which senolytic effects were displayed [1, 19]: above 30 μM
EC50 [1, 14]: > 30 µM
